Measurements: US8349583B2, “Distinguishing cells in a sample by inactivating extracellular enzyme before releasing intracellular enzyme” (priority 2005, dated 2013)
“And” between values parts separate entries of the source, which are not always exact repeats. Equal entries are not always repeated. Marks after values point to notes of the source that are not given here.

Columns and labels:
Assay type in all cases: biochemical
[1] = Effect of incubation pH on purified AK activity (luciferin/luciferase)
Description: (§1) Experimental work used adenylate kinase-generated ATP to drive a luciferin/luciferase activity, giving results in RLUs as a quantitative measure of initial ATP levels. All AK assays were performed at pH 7.5, and 37° C. Results of the assay were read at ambient temperature.
To assess the effect of pH on AK activity, purified enzyme was incubated for 1 hour at various pH, with pH 7.5 being the control (normal assay conditions). AK activity was measured by using the bioluminescent luciferin/luciferase to detect AK-generated ATP.

[2] = AK activity after transient pH drop or acidic incubation at pH 4; conditions: for AK activity relative to control: listed as AK alone
Description: as §1
In further experiments, three treatment conditions were tested: (i) a control, run at pH 7.5 with no pH change; (ii) a transient pH drop before the assay, where pH was reduced to pH 4 and then returned to pH 7.5; and (iii) an acidic incubation, where pH was reduced to pH 4 for 15 minutes. AK activity was then assessed. In parallel tests, the effect of these pH conditions on the viability of E. coli and E. faecalis was assessed.

[3] = system: bacterial adenylate kinase; test: AK reduction by different proteases over time for different organisms; conditions: 37° C., 10 to 120 minutes; trypsin 1000, papain 10, proteinase K 2.5, chymotrypsin 1 U/ml
Description: • 1. Bacteria were scraped from plates and inoculated in approximately 20 ml of broth only. These were incubated overnight at 37° C. • 2. 10× stocks of the enzymes were prepared in broth only: • a. 10 mg of 16,000 U/mg Trypsin added to 16 ml of broth to give 10,000 U/ml (10×) stock. • b. 25 mg of 4 U/mg Papain added to 1 ml of broth to give 100 U/ml (10×) stock. • c. 10 mg of 7.5 U/mg proteinase K added to 3 ml of broth to give a 25 U/ml (10×) stock. • d. 10.5 ul of 239 U/ml chymotrypsin added to 239.5 ul of broth to give a 10 U/ml stock. • 3. The inoculums were then centrifuged at approximately 14030 RCF for one hour. • 4. The supernatant was then taken, tested for adenylate kinase activity (described below), and diluted with broth only if needed to give about 10^5 cpm/ml. • 5. The supernatant was then assayed for adenylate kinase activity at time point zero in triplicate and averaged. • 6. 1.5 ml solutions of the supernatants were prepared with the correct concentration of enzyme, or broth for control. These were incubated at 37° C. • 7. Samples were then taken and assayed in triplicate for adenylate kinase activity at 10, 30, 60 and 120 minutes. • 8. The triplicates were averaged, and normalised by dividing by the time point zero average. Adenylate Kinase Assay (AK Only No Cells) • 1. […] added to a cuvette. • 2. […] RLU read immediately. […]

Row | Substance | AK activity, RLU ([1]; incubated 1 hour at pH 3) | AK activity, RLU ([1]; incubated 1 hour at pH 4) | AK activity, RLU ([1]; incubated 1 hour at pH 5) | AK activity, RLU ([1]; incubated 1 hour at pH 6) | AK activity, RLU ([1]; incubated 1 hour at pH 7.5 (control, normal assay conditions)) | AK activity, RLU ([1]; incubated 1 hour at pH 9) | AK activity, RLU ([1]; incubated 1 hour at pH 10) | AK activity, RLU ([1]; incubated 1 hour at pH 11) | AK activity, RLU ([1]; incubated 1 hour at pH 12) | AK activity relative to control ([2]; acidic incubation: pH 4 for 15 minutes) | reduction in AK activity ([2]; incubation at pH 4) [fold] | AK activity relative to control ([2]; transient pH drop: reduced to pH 4 and returned to pH 7.5) | degradation of AK extracted from different organisms [3]
1 | adenylate kinase [AK] | 15.7 RLU (10^3) | 11.1 RLU (10^3) | 299.0 RLU (10^3) | 333.5 RLU (10^3) | 288.2 RLU (10^3) | 262.4 RLU (10^3) | 214.5 RLU (10^3) | 201.2 RLU (10^3) | 88.6 RLU (10^3) | 13% and 8% | ~10 | 91% and 89% | 
2 | chymotrypsin |  |  |  |  |  |  |  |  |  |  |  |  | degraded the AK in a similar manner to trypsin
